PMC8517087, “Analysis of M4 Transmembrane Segments in NMDA Receptor Function: A Negative Allosteric Modulatory Site at the GluN1 M4 is Determining the Efficiency of Neurosteroid Modulation” (Frontiers in Pharmacology, 2021)
Structures can show the parent of a compound that is named as a salt.

Key:
Assay in all cases: two-electrode voltage clamp, Xenopus oocytes, -70 mV
Type in all cases: cell-based
GluN1/GluN2A = target: T1, GluN1/GluN2A (Rattus norvegicus; Mus musculus, UniProt P35436+P35439)
T1 construct: gene Grin1; full-length wild-type subunits in pNKS2, cRNA in Xenopus laevis oocytes; heterotetramer (rat GluN1 with mouse GluN2A)
T1 sequence (P35436 23-1464, other chains not shown): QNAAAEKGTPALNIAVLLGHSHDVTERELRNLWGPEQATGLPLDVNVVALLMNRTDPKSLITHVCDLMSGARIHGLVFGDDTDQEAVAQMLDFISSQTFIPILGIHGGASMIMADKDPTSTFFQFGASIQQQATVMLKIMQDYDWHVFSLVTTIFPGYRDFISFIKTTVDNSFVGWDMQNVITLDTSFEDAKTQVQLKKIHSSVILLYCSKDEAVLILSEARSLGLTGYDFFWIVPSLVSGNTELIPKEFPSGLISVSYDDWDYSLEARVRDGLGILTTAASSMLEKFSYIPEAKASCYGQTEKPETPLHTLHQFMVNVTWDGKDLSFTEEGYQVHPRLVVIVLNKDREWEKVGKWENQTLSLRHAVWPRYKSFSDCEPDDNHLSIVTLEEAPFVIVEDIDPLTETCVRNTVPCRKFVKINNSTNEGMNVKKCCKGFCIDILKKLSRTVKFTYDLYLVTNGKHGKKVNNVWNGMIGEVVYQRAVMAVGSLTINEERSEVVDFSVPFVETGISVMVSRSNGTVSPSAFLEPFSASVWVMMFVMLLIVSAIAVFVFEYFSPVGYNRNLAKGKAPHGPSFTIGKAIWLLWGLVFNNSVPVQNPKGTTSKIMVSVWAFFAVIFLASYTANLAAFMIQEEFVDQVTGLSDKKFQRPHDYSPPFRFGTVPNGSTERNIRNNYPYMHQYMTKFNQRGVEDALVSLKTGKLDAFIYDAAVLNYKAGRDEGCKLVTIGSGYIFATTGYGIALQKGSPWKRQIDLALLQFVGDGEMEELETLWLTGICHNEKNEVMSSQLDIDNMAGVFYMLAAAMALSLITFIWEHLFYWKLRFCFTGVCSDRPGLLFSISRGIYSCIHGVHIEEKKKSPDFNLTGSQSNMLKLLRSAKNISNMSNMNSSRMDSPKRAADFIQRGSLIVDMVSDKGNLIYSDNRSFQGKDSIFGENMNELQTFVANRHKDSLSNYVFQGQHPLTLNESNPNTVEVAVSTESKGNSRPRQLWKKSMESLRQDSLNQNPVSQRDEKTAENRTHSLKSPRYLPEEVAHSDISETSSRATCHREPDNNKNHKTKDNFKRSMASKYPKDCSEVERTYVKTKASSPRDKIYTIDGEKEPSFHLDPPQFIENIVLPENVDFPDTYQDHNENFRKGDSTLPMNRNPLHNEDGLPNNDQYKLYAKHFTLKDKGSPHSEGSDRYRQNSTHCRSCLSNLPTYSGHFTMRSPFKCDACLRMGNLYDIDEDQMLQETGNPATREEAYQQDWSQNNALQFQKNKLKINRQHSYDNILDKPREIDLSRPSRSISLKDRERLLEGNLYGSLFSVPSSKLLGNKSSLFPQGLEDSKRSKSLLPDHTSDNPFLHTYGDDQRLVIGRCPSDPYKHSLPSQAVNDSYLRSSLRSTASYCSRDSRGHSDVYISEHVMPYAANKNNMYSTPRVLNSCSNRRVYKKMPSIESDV

GluN1^ΔM4+M4^N1/GluN2A = target: T2, GluN1^ΔM4+M4^N1/GluN2A (Rattus norvegicus; Mus musculus, UniProt P35436+P35439)
T2 construct: gene Grin1; M4-truncated GluN1 plus separately expressed M4 fragment carrying GluN1 signal peptide, with full-length GluN2A; Xenopus oocytes

GluN1^ΔM4+M4^N1/GluN2D = target: T3, GluN1^ΔM4+M4^N1/GluN2D (Rattus norvegicus; Mus musculus, UniProt P35439+Q03391); details: saturating glutamate and glycine, PS pre-applied 45 s
T3 construct: gene Grin1; M4-truncated GluN1 plus separately expressed M4 fragment carrying GluN1 signal peptide, with full-length GluN2D; Xenopus oocytes

GluN1/GluN2A^ΔM4+M4^N2A = target: T4, GluN1/GluN2A^ΔM4+M4^N2A (Rattus norvegicus; Mus musculus, UniProt P35436+P35439); details: saturating glutamate and glycine, PS pre-applied 45 s
T4 construct: gene Grin1; full-length GluN1 with M4-truncated GluN2A plus separately expressed GluN2A M4 fragment; Xenopus oocytes
T4 sequence (P35436 23-803, stated change not applied, other chains not shown): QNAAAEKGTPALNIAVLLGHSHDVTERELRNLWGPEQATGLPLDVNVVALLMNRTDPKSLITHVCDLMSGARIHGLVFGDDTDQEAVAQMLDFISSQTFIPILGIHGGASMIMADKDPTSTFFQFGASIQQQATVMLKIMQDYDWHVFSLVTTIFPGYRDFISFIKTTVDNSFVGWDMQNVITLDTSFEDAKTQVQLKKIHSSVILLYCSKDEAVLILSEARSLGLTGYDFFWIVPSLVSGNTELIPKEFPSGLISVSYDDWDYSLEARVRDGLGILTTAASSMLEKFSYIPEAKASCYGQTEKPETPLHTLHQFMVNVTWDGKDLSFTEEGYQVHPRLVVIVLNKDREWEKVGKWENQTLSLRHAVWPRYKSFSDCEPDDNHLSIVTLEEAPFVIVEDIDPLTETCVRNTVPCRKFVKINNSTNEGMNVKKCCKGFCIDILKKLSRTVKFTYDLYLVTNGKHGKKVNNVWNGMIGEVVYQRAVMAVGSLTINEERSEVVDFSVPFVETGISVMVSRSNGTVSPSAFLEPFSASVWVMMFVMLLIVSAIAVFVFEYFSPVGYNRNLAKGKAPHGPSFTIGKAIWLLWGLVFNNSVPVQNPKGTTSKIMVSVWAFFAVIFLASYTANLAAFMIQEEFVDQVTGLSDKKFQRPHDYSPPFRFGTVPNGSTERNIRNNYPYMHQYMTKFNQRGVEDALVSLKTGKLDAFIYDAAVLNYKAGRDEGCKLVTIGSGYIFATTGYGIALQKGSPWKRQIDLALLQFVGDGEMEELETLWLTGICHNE
T4 sequence (P35436 804-1464, stated change not applied, other chains not shown): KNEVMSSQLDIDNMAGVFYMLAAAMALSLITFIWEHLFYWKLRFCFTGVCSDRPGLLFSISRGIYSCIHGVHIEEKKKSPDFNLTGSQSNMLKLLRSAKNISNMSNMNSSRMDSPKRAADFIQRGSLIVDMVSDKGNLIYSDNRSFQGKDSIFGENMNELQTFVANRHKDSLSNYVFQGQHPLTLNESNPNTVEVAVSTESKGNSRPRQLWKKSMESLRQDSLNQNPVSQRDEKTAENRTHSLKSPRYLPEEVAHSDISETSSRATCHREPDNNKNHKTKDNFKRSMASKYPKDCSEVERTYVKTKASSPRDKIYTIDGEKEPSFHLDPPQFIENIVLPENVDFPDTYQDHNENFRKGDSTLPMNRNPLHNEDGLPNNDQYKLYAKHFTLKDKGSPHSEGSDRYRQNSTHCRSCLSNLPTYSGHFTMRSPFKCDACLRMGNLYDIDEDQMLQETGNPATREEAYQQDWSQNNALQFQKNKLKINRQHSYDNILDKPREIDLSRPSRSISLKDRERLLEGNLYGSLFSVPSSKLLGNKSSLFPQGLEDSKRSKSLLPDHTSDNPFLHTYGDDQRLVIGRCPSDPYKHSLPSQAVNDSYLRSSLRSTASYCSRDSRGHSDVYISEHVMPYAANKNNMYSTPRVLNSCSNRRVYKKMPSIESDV

CC(=O)[C@H]1CC[C@H]2[C@@H]3CC=C4C[C@@H](OS(=O)(=O)O)CC[C@]4(C)[C@H]3CC[C@]12C [pregnenolone sulfate, 20-oxo-5-pregnen-3β-yl sulfate]
EC50 (GluN1/GluN2A): 12.4 ± 1.3 µM
EC50 (GluN1^ΔM4+M4^N1/GluN2A): 15 ± 1.1 µM
Imax potentiation (fold) (GluN1^ΔM4+M4^N1/GluN2D): 1.45 ± 0.19 fold
Imax potentiation at 100 μM (fold) (GluN1/GluN2A^ΔM4+M4^N2A): ~ 1.1 fold
